From patent US12617790B2, “Mitragynine analogs and uses thereof” (Memorial Sloan-Kettering Cancer Center, priority 2015, dated 2026)

Legend:
KOR-1 [1] = target: T1, KOR-1 (Mus musculus, UniProt P33534); assay: Competition binding against 125I-IBNtxA in KOR-1/CHO membranes
T1 construct: expressed in transfected cells; host or cells: CHO

mice [2] = assay: Antisense oligodeoxynucleotide downregulation, tail flick antinociception; format: in vivo, mouse; settings: antisense icv days 1, 3, 5, test day 6; VM1501 1.0 mg/kg sc, VM1502 1.5 mg/kg sc
CD1 male mice [3] = assay: Tolerance study, chronic twice daily dosing, tail flick; settings: for ED50: Mus musculus, sc
DOR-1 [4] = target: T2, DOR-1 (Mus musculus, UniProt P32300); assay: [35S]GTPγS functional assay, DOR-1 transfected cell membranes; format: biochemical
T2 construct: expressed in transfected cells; host or cells: CHO

CD1 mice [5] = assay: Respiratory depression assessment (MouseOx pulse oximeter breath rate)
rats = assay: Tail flick analgesia, sc, rats; format: in vivo; settings: Rattus norvegicus, 0.25 h, rats (n=3), 15 mins, cumulative dosing
CD1 mice [6] = assay: Radiant heat tail flick analgesia, icv, CD1 mice; format: in vivo, mouse; settings: ED50, cumulative dose-response, tail flick 15 min after icv dose
CD1 male mice [7] = assay: Tail flick antinociception, oral by gavage, CD1 male mice; format: in vivo; settings: Mus musculus, orally by gavage
CD1 mice [8] = assay: Radiant heat tail flick analgesia, sc, CD1 mice; format: in vivo; settings: Mus musculus, 0.25 h, ED50, cumulative dose-response, tail flick 15 min after sc dose
mice [9] = assay: Conditioned place preference / aversion; settings: VM1502 1.3 and 3.2 mg/kg/d, 2 days conditioning
DOR-1 [10] = target: T2, DOR-1; assay: Competition binding against 125I-IBNtxA in DOR-1/CHO membranes
KOR-1 [11] = target: T1, KOR-1; assay: [35S]GTPγS functional assay, KOR-1 transfected cell membranes; format: biochemical
mice [12] = assay: Physical dependence, naloxone-precipitated jumping; settings: VM1502 2x daily 2x ED50, challenge on days 5, 22, 29; 15 min count
CD1 mice [13] = assay: Reversal of tail flick antinociception by selective opioid antagonists, CD1 mice; format: in vivo, mouse; settings: VM1501 1.0 mg/kg sc, VM1502 1.5 mg/kg sc
mice [14] = assay: Gastrointestinal motility assay (charcoal meal transit); settings: FIG. 12C: VM1502 1.5 and 4 mg/kg, 30 min
MOR-1 [15] = target: T3, MOR-1 (Mus musculus, UniProt P42866); assay: [35S]GTPγS functional assay, MOR-1 transfected cell membranes; format: biochemical
T3 construct: expressed in transfected cells; host or cells: CHO

MOR-1 [16] = target: T3, MOR-1; assay: Competition binding against 125I-IBNtxA in MOR-1/CHO membranes

CC[C@@H]1CN2CC[C@]3(Nc4cccc(OC)c4C3=O)C2C[C@@H]1/C(=C\OC)C(=O)OC (stereo partly drawn) [VM1502, (E)-methyl 2-((1'S,6'S,7'S)-6′-ethyl-4-methoxy-3-oxo-3′,5′,6′,7′,8′,8a′-hexahydro-2′H-spiro[indoline-2,1′-indolizine]-7′-yl)-3-methoxyacrylate]
Ki (KOR-1 [1]): 24 nM
analgesic response after antisense downregulation (mice [2]): only affected in MOR-1-downregulated mice
ED50 (CD1 male mice [3]; 0 h, read-out: analgesic ED50, naïve (day 0)): 0.63 mg/kg
ED50 (CD1 male mice [3]; 120 h, read-out: analgesic ED50, day 5): 1.1 mg/kg
ED50 (CD1 male mice [3]; 288 h, read-out: analgesic ED50, day 12): 1.8 mg/kg
ED50 (CD1 male mice [3]; 528 h, read-out: analgesic ED50, day 22): 2 mg/kg
ED50 (CD1 male mice [3]; 696 h, read-out: analgesic ED50, day 29): 4.5 mg/kg
onset of analgesic tolerance (CD1 male mice [3]; dosed 2x daily with 2x antinociceptive ED50): very slow onset of tolerance compared with morphine
IC50 (DOR-1 [4]): 61 nM
respiratory rate (CD1 mice [5]; FIG. 12D, 2x antinociceptive ED50: VM1502 1.2 mg/kg sc, morphine 5 mg/kg): did not depress respiratory rate
respiratory rate (CD1 mice [5]; FIG. 12D, 5x antinociceptive ED50: VM1502 3 mg/kg sc, morphine 10 mg/kg): showed signs of respiratory depression albeit significantly less than the equianalgesic dose of morphine
respiratory rate (CD1 mice [5]; FIG. 14, 5x antinociceptive ED50: VM1502 3.75 mg/kg sc, VM1512 5.0 mg/kg sc, morphine 10 mg/kg): showed signs of respiratory depression albeit significantly less than the equianalgesic dose of morphine
ED50 (rats): 1.4 mg/kg
Analgesia icv (CD1 mice [6]): 0.38 µg
ED50 (CD1 male mice [7]): 7.5 mg/kg
ED50 (CD1 mice [8]): 0.76 mg/kg
conditioned place preference or aversion (mice [9]): did not produce conditioned place preference or aversion
Ki (DOR-1 [10]): 3 nM
IC50 (KOR-1 [11]): 31 nM
physical dependence: number of jumps after naloxone (1 mg/kg) (mice [12]): not significantly greater than that of mice treated with saline
antinociception after NTI (0.5 mg/kg sc) and norBNI (10 mg/kg sc) (CD1 mice [13]): insensitive to NTI and norBNI
antinociception after β-FNA (40 mg/kg sc) (CD1 mice [13]): antagonized by β-FNA
gastrointestinal transit (mice [14]): lowered transit significantly compared with saline (P<0.05) but less than morphine at both doses
EC50 (MOR-1 [15]): 1.7 nM
Ki (MOR-1 [16]): 0.8 nM
